Legend:
Hepatitis C virus = test: Antiviral activity against HCV 1b infected in human HuH7 cells assessed as inhibition of viral sub-genomic replication by EG(delta-4AB)SEAP reporter protein assay; format: functional, organism-based, Hepacivirus hominis; conditions: genotype 1b, Huh-7
[1] = Cytotoxicity against human HuH7 cells; format: cell-based, Huh-7
[2] = Selectivity index, ratio of CC50 for human HuH7 cells to EC50 for HCV 1b; design: species or system Huh-7

Compound	EC50 (Hepatitis C virus) [nM]	CC50 [1] [nM]	Ratio CC50/EC50 [2]
NC(=S)Nc1cccc(OCCCCCN2CCN(c3ccc(Oc4ccccc4)cc3)C2=O)c1	27000	> 50000	>2
NC(=S)Nc1cccc(OCCCCCN2CCN(c3ccc(Cl)c(Cl)c3)C2=O)c1	210	13000	62
Cc1ccc(OCCCCCNC(=S)Nc2cccc3ccccc23)cc1NC(N)=S	1030	> 50000	>49
NC(=S)Nc1cccc(OCCCCCN2CCCN(c3ccc(Cl)cc3)C2=O)c1	1500	15000	10
NC(=S)Nc1cccc(OCCCCCN2CCCCN(c3ccc(Cl)cc3)C2=O)c1	250	13000	52
NC(=S)Nc1cccc(OCCCCCN2CCN(c3ccc(Cl)cc3)C2=O)c1	280	39000	139
NC(=S)Nc1cccc(OCCCCCN2CCN(c3ccc(C4CCCCC4)cc3)C2=O)c1	290	12000	41
NC(=S)Nc1cccc(OCCCCCN2CCN(c3ccc(C4CCCCC4)cc3)C2=S)c1	167	> 50000	>299
Cc1c(NC(N)=S)cccc1OCCCCCNC(=S)Nc1cccc2ccccc12	> 50000	> 50000	>1
NC(=S)Nc1cccc(OCCCCCN2CCN(c3ccccc3-c3ccccc3)C2=O)c1	396	12000	30
NC(=S)Nc1cccc(OCCCCCN2CCN(c3cccc4ccccc34)C2=O)c1	570	15000	26
NC(=S)Nc1cccc(OCCCCCN2CCN(c3cccnc3)C2=O)c1	> 50000	> 50000	>1
NC(=S)Nc1cccc(OCCCCCNC(=S)Nc2ccc(Cl)cc2)c1	510	> 50000	>98
NC(=S)Nc1cccc(OCCCCCNC(=S)Nc2cccc3ccccc23)c1	450	> 50000	>111
NC(=S)Nc1cccc(OCCCCCN2CCN(c3ccc(Cl)cc3)C2=S)c1	260	> 50000	>192
NC(=S)Nc1cccc(OCCCCCNC(=S)Nc2cc(Cl)cc(Cl)c2)c1	177	18000	102
NC(=S)Nc1cccc(OCCCCCNC(=O)Nc2cccc3ccccc23)c1	1390	> 50000	>36
NC(=S)Nc1cccc(OCCCCCCCCNC(=S)Nc2ccc(N3CCOCC3)cc2)c1	316	> 50000	>158
NC(=S)Nc1cccc(OCCCCCN2CCN(c3ccc(Cl)c(Cl)c3)C2=S)c1	200	> 50000	>250
NC(=S)Nc1cccc(OCCCCCN2CCN(c3ccccc3-c3ccccc3)C2=S)c1	234	> 50000	>214

Compounds with a lower EC50 (Hepatitis C virus), results first:

EC50 (Hepatitis C virus) [nM]	Compound	CC50 [1] [nM]	Ratio CC50/EC50 [2]
80	NC(=S)Nc1cccc(OCCCCCCCCNC(=S)Nc2ccc3c(c2)CCC3)c1	34000	425
88	NC(=S)Nc1cccc(OCCCCCCCNC(=S)Nc2cc(Cl)cc(Cl)c2)c1	20000	227
42	CCCCCn1c2ccccc2c2cc(NC(=S)NCCCCCCCCOc3cccc(NC(N)=S)c3)ccc21	> 50000	>1190
131	NC(=S)Nc1cccc(OCCCCCCCCNC(=S)Nc2ccccc2Br)c1	36000	275
118	NC(=S)Nc1cccc(OCCCCCCCCNC(=S)Nc2ccc3c(c2)Cc2ccccc2-3)c1	25000	212
53	NC(=S)Nc1cccc(OCCCCCCCCNC(=S)Nc2ccc3c(c2)C(=O)c2ccccc2-3)c1	> 50000	>943
96	NC(=S)Nc1cccc(OCCCCCCCCNC(=S)Nc2ccc3c(c2)c2ccccc2n3-c2ccccc2)c1	> 50000	>521
44	Cc1cc(C)cc(-n2c3ccccc3c3cc(NC(=S)NCCCCCCCCOc4cccc(NC(N)=S)c4)ccc32)c1	> 50000	>1136
60	CC(C)(C)c1ccc(NC(=S)NCCCCCCCCOc2cccc(NC(N)=S)c2)cc1	17000	283
36	NC(=S)Nc1cccc(OCCCCCCCCNC(=S)Nc2ccc3c(c2)c2ccccc2n3Cc2ccccc2)c1	> 50000	>1389
54	CCn1c2ccccc2c2cc(NC(=S)NCCCCCCCCOc3cccc(NC(N)=S)c3)ccc21	> 50000	>926
148	NC(=S)Nc1cccc(OCCCCCCCCNC(=S)Nc2ccc3[nH]ccc3c2)c1	18000	122
89	NC(=S)Nc1cccc(OCCCCCCCCNC(=S)Nc2ccc3[nH]c4ccccc4c3c2)c1	> 50000	>562
31	Cc1ccc(-n2c3ccccc3c3cc(NC(=S)NCCCCCCCCOc4cccc(NC(N)=S)c4)ccc32)cc1	> 50000	>1612
62	NC(=S)Nc1cccc(OCCCCCCCCNC(=S)Nc2ccc(Cl)cc2)c1	18000	290
34	NC(=S)Nc1cccc(OCCCCCCCCNC(=S)Nc2cc(Cl)cc(Cl)c2)c1	12000	353
45	CCCCn1c2ccccc2c2cc(NC(=S)NCCCCCCCCOc3cccc(NC(N)=S)c3)ccc21	> 50000	>1111
93	NC(=S)Nc1cccc(OCCCCCCCCNC(=S)Nc2cccc(Br)c2)c1	20000	215
122	NC(=S)Nc1cccc(OCCCCCCNC(=S)Nc2cc(Cl)cc(Cl)c2)c1	21000	172
47	NC(=S)Nc1cccc(OCCCCCCCCNC(=S)Nc2ccc(Br)cc2)c1	18000	383
80	Cn1c2ccccc2c2cc(NC(=S)NCCCCCCCCOc3cccc(NC(N)=S)c3)ccc21	> 50000	>625
33	NC(=S)Nc1cccc(OCCCCCCCCNC(=S)Nc2ccc3c(c2)c2ccccc2n3CCc2ccccc2)c1	> 50000	>1515
48	NC(=S)Nc1cccc(OCCCCCc2ccccc2)c1	22000	458
71	NC(=S)Nc1cccc(OCCCCCCCCNC(=S)Nc2ccc(C3CCCCC3)cc2)c1	> 50000	>704
109	NC(=S)Nc1cccc(OCCCCCCCCNC(=S)Nc2ccccc2)c1	> 50000	>459
36	CCCCCCn1c2ccccc2c2cc(NC(=S)NCCCCCCCCOc3cccc(NC(N)=S)c3)ccc21	> 50000	>1389
48	CCCn1c2ccccc2c2cc(NC(=S)NCCCCCCCCOc3cccc(NC(N)=S)c3)ccc21	> 50000	>1042
